The record followed here is PubChem BioAssay (NCI).

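48-hour exposure; five concentrations; linearly interpolated endpoints. Here, GI50 denotes the concentration required for 50% inhibition of growth. TGI is the concentration that stops growth completely.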 Bounds are passed on as bounds.

The test system of one assay is COLO 205 colon. The assay is described as follows: NCI tumour cell line growth inhibition, 48 h.
`CC(C)(C)C1=NC(S)NC(CCC(=O)Nc2ccccc2[N+](=O)[O-])=C1` (centres undefined) showed a TGI greater than 100 µM.

Another assay deals with IGROV1 ovarian. The assay is described as follows: NCI tumour cell line growth inhibition, 48 h.
Consider `CC[n+]1ccc2c(c1)C(=O)c1nccc3c1c-2nc1ccccc13`, for which the GI50 was 1.76 µM and the TGI was found to be 10.9 µM.

`CCC1CCC2CCCC(C)N12` (centres undefined) returned a TGI greater than 100 µM.

Take `COc1ccc(CNC(=O)COc2ccc(/C=N/Nc3nc4ccccc4s3)cc2)cc1`: the GI50 is 1.69 µM and the TGI turned out to be 6.73 µM.

In the case of `CCOC(=O)CCCO`, the TGI was greater than 100 µM.

With `COC(=O)[C@@H](C)C[C@H](Cc1ccccc1)NC(=O)c1nc([C@@H](C[C@H](C(C)C)N(C)C(=O)[C@@H](NC(=O)[C@H]2CCCN2C)C(C)C)OC(C)=O)sc1C`, the GI50 is less than 0.0025 µM and the TGI is greater than 25 µM.

Regarding `ClCc1ccccc1CSc1ncnc2nc[nH]c12`, the GI50 is greater than 60 µM and the TGI is greater than 60 µM.

Molecule `O=C(O)Cc1c[nH]c2ccc(F)cc12` returned a TGI greater than 100 µM.

`COC(=O)C(CC(=O)c1cc2c(cc1I)OCO2)Cc1cc(OC)c(OC)c(OC)c1I` (centres undefined) had a TGI greater than 100 µM.

In turn, `C/C(=N\NC(N)=S)c1ccc(C)cc1C` came in with a TGI greater than 100 µM.

`COc1ccc(/C=C(/C(=O)O)c2cc(OC)c(OC)c(OC)c2)cc1`: the TGI is greater than 100 µM.

In turn, `COc1cc2c(cc1O)[C@H](Cc1ccc(Oc3cc(C[C@H]4c5cc(OC)c(OC)cc5CCN4C)ccc3OC)cc1)NCC2` returned a TGI of 33 µM.

With `COc1cccc(-c2nn(-c3ccccc3)cc2-c2ccnc(NCCCNS(=O)(=O)c3cccc(F)c3)c2)c1`, the GI50 is 4.96 µM and the TGI is greater than 100 µM.

As to `O=C1CSC(N2CCN(c3cccc(Cl)c3)CC2)=N1`, the GI50 was greater than 100 µM and the TGI is greater than 100 µM.

In the case of `Cc1cc(C)nc(NS(=O)(=O)c2ccc(NC(=O)c3cccc4c(=O)c5ccccc5[nH]c34)cc2)n1`, the TGI stood at 68.1 µM.

As to `COc1nc2c(cc1S(=O)(=O)c1ccccc1)CCc1c-2cnn1-c1ccccc1Cl`, the GI50 was greater than 100 µM and the TGI is greater than 100 µM.

Take `CC(C)(C)C1=NC(S)NC(CCC(=O)Nc2ccccc2[N+](=O)[O-])=C1` (centres undefined): the TGI is greater than 100 µM.

The subject of another assay is SN12C renal. The assay is described as follows: NCI tumour cell line growth inhibition, 48 h.
On to `CC[n+]1ccc2c(c1)C(=O)c1nccc3c1c-2nc1ccccc13`, for which the GI50 is 0.142 µM and the TGI was determined as 0.66 µM.

Molecule `CCC1CCC2CCCC(C)N12` (centres undefined) had a TGI greater than 100 µM.

As for `COc1ccc(CNC(=O)COc2ccc(/C=N/Nc3nc4ccccc4s3)cc2)cc1`, the GI50 is 2.84 µM and the TGI was greater than 100 µM.

For the molecule `CCOC(=O)CCCO`, the TGI was greater than 100 µM.

For `COC(=O)[C@@H](C)C[C@H](Cc1ccccc1)NC(=O)c1nc([C@@H](C[C@H](C(C)C)N(C)C(=O)[C@@H](NC(=O)[C@H]2CCCN2C)C(C)C)OC(C)=O)sc1C`, the GI50 was less than 0.0025 µM and the TGI is greater than 25 µM.

As to `ClCc1ccccc1CSc1ncnc2nc[nH]c12`, the GI50 was greater than 60 µM and the TGI is greater than 60 µM.

`O=C(O)Cc1c[nH]c2ccc(F)cc12` yielded a TGI greater than 100 µM.

`COC(=O)C(CC(=O)c1cc2c(cc1I)OCO2)Cc1cc(OC)c(OC)c(OC)c1I` (centres undefined) returned a TGI greater than 100 µM.

The molecule `C/C(=N\NC(N)=S)c1ccc(C)cc1C` came in with a TGI greater than 100 µM.

`COc1ccc(/C=C(/C(=O)O)c2cc(OC)c(OC)c(OC)c2)cc1` registered a TGI greater than 100 µM.

`COc1cc2c(cc1O)[C@H](Cc1ccc(Oc3cc(C[C@H]4c5cc(OC)c(OC)cc5CCN4C)ccc3OC)cc1)NCC2` had a TGI of 31.1 µM.

As to `COc1cccc(-c2nn(-c3ccccc3)cc2-c2ccnc(NCCCNS(=O)(=O)c3cccc(F)c3)c2)c1`, the GI50 is 5.37 µM and the TGI was greater than 100 µM.

For the molecule `O=C1CSC(N2CCN(c3cccc(Cl)c3)CC2)=N1`, the GI50 is greater than 100 µM and the TGI was greater than 100 µM.

As for `Cc1cc(C)nc(NS(=O)(=O)c2ccc(NC(=O)c3cccc4c(=O)c5ccccc5[nH]c34)cc2)n1`, the TGI is 32.8 µM.

With `COc1nc2c(cc1S(=O)(=O)c1ccccc1)CCc1c-2cnn1-c1ccccc1Cl`, the GI50 was 19.6 µM and the TGI was greater than 100 µM.

Turning to `CC(C)(C)C1=NC(S)NC(CCC(=O)Nc2ccccc2[N+](=O)[O-])=C1` (centres undefined), the TGI is greater than 100 µM.

The subject of a further assay is OVCAR-5 ovarian. The experiment in a line: NCI tumour cell line growth inhibition, 48 h.
On to `CC[n+]1ccc2c(c1)C(=O)c1nccc3c1c-2nc1ccccc13`, for which the GI50 was 6.88 µM and the TGI was 19.4 µM.

As for `COc1ccc(CNC(=O)COc2ccc(/C=N/Nc3nc4ccccc4s3)cc2)cc1`, the GI50 is 4.57 µM and the TGI is greater than 100 µM.

`CCOC(=O)CCCO` showed a TGI greater than 100 µM.

Take `COC(=O)[C@@H](C)C[C@H](Cc1ccccc1)NC(=O)c1nc([C@@H](C[C@H](C(C)C)N(C)C(=O)[C@@H](NC(=O)[C@H]2CCCN2C)C(C)C)OC(C)=O)sc1C`: the GI50 is 0.0105 µM and the TGI is greater than 25 µM.

In the case of `ClCc1ccccc1CSc1ncnc2nc[nH]c12`, the GI50 was greater than 60 µM and the TGI was greater than 60 µM.

`O=C(O)Cc1c[nH]c2ccc(F)cc12` yielded a TGI greater than 100 µM.

`COC(=O)C(CC(=O)c1cc2c(cc1I)OCO2)Cc1cc(OC)c(OC)c(OC)c1I` (centres undefined) gave a TGI greater than 100 µM.

In turn, `C/C(=N\NC(N)=S)c1ccc(C)cc1C` registered a TGI of 94.1 µM.

As for `COc1ccc(/C=C(/C(=O)O)c2cc(OC)c(OC)c(OC)c2)cc1`, the TGI is greater than 100 µM.

For the molecule `COc1cc2c(cc1O)[C@H](Cc1ccc(Oc3cc(C[C@H]4c5cc(OC)c(OC)cc5CCN4C)ccc3OC)cc1)NCC2`, the TGI was 35 µM.

For the molecule `COc1cccc(-c2nn(-c3ccccc3)cc2-c2ccnc(NCCCNS(=O)(=O)c3cccc(F)c3)c2)c1`, the GI50 was greater than 100 µM and the TGI is greater than 100 µM.

For `O=C1CSC(N2CCN(c3cccc(Cl)c3)CC2)=N1`, the GI50 is greater than 100 µM and the TGI was greater than 100 µM.

Turning to `COc1nc2c(cc1S(=O)(=O)c1ccccc1)CCc1c-2cnn1-c1ccccc1Cl`, the GI50 is greater than 100 µM and the TGI is greater than 100 µM.

Molecule `CC(C)(C)C1=NC(S)NC(CCC(=O)Nc2ccccc2[N+](=O)[O-])=C1` (centres undefined) yielded a TGI greater than 100 µM.

For another assay, the system named is HOP-92 NSCLC. The assay is described as follows: NCI tumour cell line growth inhibition, 48 h.
As for `CC[n+]1ccc2c(c1)C(=O)c1nccc3c1c-2nc1ccccc13`, the GI50 was 1.45 µM and the TGI is 7.02 µM.

Molecule `CCC1CCC2CCCC(C)N12` (centres undefined) had a TGI greater than 100 µM.

Turning to `COc1ccc(CNC(=O)COc2ccc(/C=N/Nc3nc4ccccc4s3)cc2)cc1`, the GI50 was 1.4 µM and the TGI is 4.41 µM.

Molecule `CCOC(=O)CCCO` gave a TGI greater than 100 µM.

As for `COC(=O)[C@@H](C)C[C@H](Cc1ccccc1)NC(=O)c1nc([C@@H](C[C@H](C(C)C)N(C)C(=O)[C@@H](NC(=O)[C@H]2CCCN2C)C(C)C)OC(C)=O)sc1C`, the GI50 is 7.33 µM and the TGI is greater than 25 µM.

As for `ClCc1ccccc1CSc1ncnc2nc[nH]c12`, the GI50 was greater than 60 µM and the TGI is greater than 60 µM.

For `O=C(O)Cc1c[nH]c2ccc(F)cc12`, the TGI is greater than 100 µM.

On to `COC(=O)C(CC(=O)c1cc2c(cc1I)OCO2)Cc1cc(OC)c(OC)c(OC)c1I` (centres undefined), for which the TGI was greater than 100 µM.

`C/C(=N\NC(N)=S)c1ccc(C)cc1C` displayed a TGI greater than 100 µM.

`COc1ccc(/C=C(/C(=O)O)c2cc(OC)c(OC)c(OC)c2)cc1`: the TGI is greater than 100 µM.

Regarding `COc1cc2c(cc1O)[C@H](Cc1ccc(Oc3cc(C[C@H]4c5cc(OC)c(OC)cc5CCN4C)ccc3OC)cc1)NCC2`, the TGI is 20.1 µM.

Regarding `COc1cccc(-c2nn(-c3ccccc3)cc2-c2ccnc(NCCCNS(=O)(=O)c3cccc(F)c3)c2)c1`, the GI50 is 2.42 µM and the TGI was 9.63 µM.

`Cc1cc(C)nc(NS(=O)(=O)c2ccc(NC(=O)c3cccc4c(=O)c5ccccc5[nH]c34)cc2)n1` showed a TGI of 44 µM.

`CC(C)(C)C1=NC(S)NC(CCC(=O)Nc2ccccc2[N+](=O)[O-])=C1` (centres undefined) came in with a TGI greater than 100 µM.

The test system of a further assay is NCI-H522 lung. The experiment in a line: NCI tumour cell line growth inhibition, 48 h.
For `CC[n+]1ccc2c(c1)C(=O)c1nccc3c1c-2nc1ccccc13`, the GI50 is 0.538 µM and the TGI is 1.45 µM.

In turn, `CCC1CCC2CCCC(C)N12` (centres undefined) displayed a TGI greater than 100 µM.

With `COc1ccc(CNC(=O)COc2ccc(/C=N/Nc3nc4ccccc4s3)cc2)cc1`, the GI50 was 2.44 µM and the TGI is 9.63 µM.

`CCOC(=O)CCCO` returned a TGI greater than 100 µM.

For the molecule `COC(=O)[C@@H](C)C[C@H](Cc1ccccc1)NC(=O)c1nc([C@@H](C[C@H](C(C)C)N(C)C(=O)[C@@H](NC(=O)[C@H]2CCCN2C)C(C)C)OC(C)=O)sc1C`, the GI50 was less than 0.0025 µM and the TGI is less than 0.0025 µM.

On to `COC(=O)C(CC(=O)c1cc2c(cc1I)OCO2)Cc1cc(OC)c(OC)c(OC)c1I` (centres undefined), for which the TGI is greater than 100 µM.

`COc1ccc(/C=C(/C(=O)O)c2cc(OC)c(OC)c(OC)c2)cc1`: the TGI was found to be 36.6 µM.

As for `COc1cccc(-c2nn(-c3ccccc3)cc2-c2ccnc(NCCCNS(=O)(=O)c3cccc(F)c3)c2)c1`, the GI50 was 2.05 µM and the TGI was 21.2 µM.

In the case of `O=C1CSC(N2CCN(c3cccc(Cl)c3)CC2)=N1`, the GI50 is greater than 100 µM and the TGI was greater than 100 µM.

In turn, `Cc1cc(C)nc(NS(=O)(=O)c2ccc(NC(=O)c3cccc4c(=O)c5ccccc5[nH]c34)cc2)n1` displayed a TGI of 27.6 µM.

On to `COc1nc2c(cc1S(=O)(=O)c1ccccc1)CCc1c-2cnn1-c1ccccc1Cl`, for which the GI50 was 3.02 µM and the TGI was greater than 100 µM.
